Measurements from patent US9376396B2, “Acylaminocycloalkyl compounds suitable for treating disorders that respond to modulation of dopamine D3 receptor” (AbbVie Deutschland GmbH & Co. KG, priority 2012, dated 2016).

Columns and labels:
[1] = Determination of the microsomal half-life / microsomal clearance, human; format: in vitro ADME; conditions: human liver microsomes, 0.5 μM test substance, 0.25 mg microsomal protein/ml, NADPH, 37° C.
Experimental: (§1) The metabolic stability of the compounds of the invention was determined in the following assay.
(§2) The test substances were incubated in a concentration of 0.5 μM as follows:
(§3) 0.5 μM test substance are preincubated together with liver microsomes from different species (from rat, human or other species) (0.25 mg of microsomal protein/ml) in 0.05 M potassium phosphate buffer of pH 7.4 in microtiter plates at 37° C. for 5 min. The reaction is started by adding NADPH (1 mg/mL). After 0, 5, 10, 15, 20 and 30 min, 50 μl aliquots are removed, and the reaction is immediately stopped and cooled with the same volume of acetonitrile. The samples are frozen until analyzed. The remaining concentration of undegraded test substance is determined by MSMS. The half-life (T½) is determined from the gradient of the signal of test substance/unit time plot, it being possible to calculate the half-life of the test substance, assuming first order kinetics, from the decrease in the concentration of the compound with time. The microsomal clearance (mCl) is calculated from mCl=ln 2/T½/(content of microsomal protein in mg/ml)×1000 [ml/min/mg] (modified from references: Di, The Society for Biomoleculur Screening, 2003, 453-462; Obach, DMD, 1999 vol 27. N 11, 1350-1359).

[2] = Determination of the microsomal half-life / microsomal clearance, rat; format: in vitro ADME; conditions: rat liver microsomes, 0.5 μM test substance, 0.25 mg microsomal protein/ml, NADPH, 37° C.
Experimental: as §1, §2, §3

[3] = target: T1, human dopamine D3 receptors (Homo sapiens, UniProt P35462); experiment: Receptor binding study, dopamine D3 receptor ([125I]-iodosulpride displacement); conditions: membranes of HEK-293 cells, 0.1 nM [125I]-iodosulpride, 25° C., 60 minutes
T1 construct: expressed in transfected cells; host or cells: HEK-293
T1 sequence (P35462 whole entry): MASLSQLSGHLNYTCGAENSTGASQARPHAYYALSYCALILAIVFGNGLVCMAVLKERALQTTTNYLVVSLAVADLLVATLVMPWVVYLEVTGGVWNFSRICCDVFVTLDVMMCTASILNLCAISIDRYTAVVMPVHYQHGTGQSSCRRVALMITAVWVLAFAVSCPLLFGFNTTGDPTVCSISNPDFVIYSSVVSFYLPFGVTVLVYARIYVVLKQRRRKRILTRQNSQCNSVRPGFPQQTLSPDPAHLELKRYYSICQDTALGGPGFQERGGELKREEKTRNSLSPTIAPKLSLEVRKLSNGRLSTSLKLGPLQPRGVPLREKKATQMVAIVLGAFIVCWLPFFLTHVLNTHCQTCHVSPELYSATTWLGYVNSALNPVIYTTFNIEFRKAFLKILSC
Experimental: (§4) The substance to be tested was either dissolved in methanol/Chremophor® (BASF SE) or in dimethyl sulfoxide and then diluted with water to the desired concentration.
(§5) Each assay mixture was run in triplicate. • The incubation buffer contained 50 mM tris, 120 mM NaCl, 5 mM KCl, 2 mM CaCl2, 2 mM MgCl2 and 0.1% bovine serum albumin, 10 μM quinolone and 0.1% ascorbic acid (prepared fresh daily). […] Each assay mixture was run in triplicate. • The incubation buffer contained 50 mM tris, 120 mM NaCl, 5 mM KCl, 2 mM CaCl2, 2 mM MgCl2 and 0.1% bovine serum albumin. The buffer was adjusted to pH 7.4 with HCl. c) Measurement and Analysis: • After having been incubated at 25° C. for 60 minutes, the assay mixtures were filtered through a Whatman GF/B glass fiber filter under vacuum using a cell collecting device. The filters were transferred to scintillation viols using a filter transfer system. After 4 ml of Ultima Gold® (Packard) have been added, the samples were shaken for one hour and the radioactivity was then counted in a Beta-Counter (Packard, Tricarb 2000 or 2200CA).

[4] = target: T2, human dopamine D2L receptors (long isoform) (Homo sapiens, UniProt P14416); experiment: Receptor binding study, dopamine D2L receptor ([125I]iodospiperone displacement), selectivity vs D3; conditions: selectivity ratio, HEK-293 membranes
T2 construct: expressed in transfected cells; host or cells: HEK-293
T2 sequence (P14416 whole entry, canonical isoform): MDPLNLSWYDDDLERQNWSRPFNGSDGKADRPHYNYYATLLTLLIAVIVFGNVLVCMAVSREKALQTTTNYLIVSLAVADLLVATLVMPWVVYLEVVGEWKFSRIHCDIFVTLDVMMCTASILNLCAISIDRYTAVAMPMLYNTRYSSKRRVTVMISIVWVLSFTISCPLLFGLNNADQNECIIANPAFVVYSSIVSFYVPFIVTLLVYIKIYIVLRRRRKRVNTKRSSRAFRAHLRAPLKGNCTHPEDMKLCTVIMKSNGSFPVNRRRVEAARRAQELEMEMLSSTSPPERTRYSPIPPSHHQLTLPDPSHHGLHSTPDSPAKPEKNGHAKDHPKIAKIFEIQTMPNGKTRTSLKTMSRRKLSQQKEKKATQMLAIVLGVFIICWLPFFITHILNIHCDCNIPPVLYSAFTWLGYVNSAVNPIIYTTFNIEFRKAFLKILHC
Experimental: as §4, §5

hERG cardiac K+ channel = target: T3, hERG cardiac K+ channel (Homo sapiens, UniProt Q12809); experiment: Blocking the hERG channel ([3H]dofetilide displacement); format: binding; conditions: membrane homogenate from HEK 293 cells expressing hERG
T3 construct: expressed in transfected cells; host or cells: HEK-293
T3 sequence (Q12809 whole entry): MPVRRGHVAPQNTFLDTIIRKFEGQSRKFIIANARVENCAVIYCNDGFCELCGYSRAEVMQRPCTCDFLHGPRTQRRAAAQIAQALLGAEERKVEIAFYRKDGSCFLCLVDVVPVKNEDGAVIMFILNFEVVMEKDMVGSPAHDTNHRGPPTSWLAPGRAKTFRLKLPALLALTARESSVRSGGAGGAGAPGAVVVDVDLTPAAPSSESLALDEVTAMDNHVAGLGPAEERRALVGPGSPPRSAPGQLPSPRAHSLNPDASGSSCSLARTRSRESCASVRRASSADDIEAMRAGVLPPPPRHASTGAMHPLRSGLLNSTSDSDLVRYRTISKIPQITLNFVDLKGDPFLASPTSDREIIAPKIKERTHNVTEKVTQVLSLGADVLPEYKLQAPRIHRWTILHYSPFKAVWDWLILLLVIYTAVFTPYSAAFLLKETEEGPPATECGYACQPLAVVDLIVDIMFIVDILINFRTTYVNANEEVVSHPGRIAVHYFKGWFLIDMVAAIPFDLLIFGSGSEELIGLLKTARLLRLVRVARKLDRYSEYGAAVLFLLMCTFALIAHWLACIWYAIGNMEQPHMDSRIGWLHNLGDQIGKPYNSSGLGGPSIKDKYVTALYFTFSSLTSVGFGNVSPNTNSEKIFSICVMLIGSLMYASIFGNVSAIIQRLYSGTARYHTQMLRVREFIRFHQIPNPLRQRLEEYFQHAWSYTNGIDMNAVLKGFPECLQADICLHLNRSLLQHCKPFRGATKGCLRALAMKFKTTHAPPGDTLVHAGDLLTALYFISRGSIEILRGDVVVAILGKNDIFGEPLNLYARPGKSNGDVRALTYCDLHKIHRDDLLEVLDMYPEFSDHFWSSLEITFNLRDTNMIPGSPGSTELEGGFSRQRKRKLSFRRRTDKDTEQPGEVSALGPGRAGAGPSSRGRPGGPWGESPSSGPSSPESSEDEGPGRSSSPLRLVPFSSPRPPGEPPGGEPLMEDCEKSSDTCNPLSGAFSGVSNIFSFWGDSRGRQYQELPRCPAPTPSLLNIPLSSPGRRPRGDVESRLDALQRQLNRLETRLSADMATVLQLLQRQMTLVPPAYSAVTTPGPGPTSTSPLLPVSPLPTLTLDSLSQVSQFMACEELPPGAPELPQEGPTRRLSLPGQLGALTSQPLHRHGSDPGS
Experimental: The binding affinity of test drugs for the hERG cardiac K^+ channel was determined by their ability to displace tritiated dofetilide (a class III antiarrhythmic drug and potent hERG blocker) in membrane homogenates from HEK-293 cells heterogeneously expressing the hERG channel. The assay was performed as previously described G. J. Diaz et al., Journal of Pharmacological and Toxicological Methods, 50 (2004), 187-199). For this, drug dilutions were prepared from 10 mM DMSO stocks and the following were added to a 96-well polystyrene plate (Perkin-Elmer Optiplate): 20 μl of assay binding buffer (for total bounds), or 1 μM astemizole (for non-specific bounds), or test drug, 50 μl of [^3H]dofetilide (20 nM, ˜80 Ci/mmol specific activity), and 130 μl of membrane homogenate from HEK 293 cells stably transfected with hERG K^+ channels (final protein concentration of 30 μg per well). The plates were incubated at ambient temperature for 45 min, aspirated onto GF/B filter plates (Perkin-Elmer), and washed with 2 ml of cold wash buffer. After allowing the plates to dry, 50 μl of scintillant (Perkin-Elmer MicroScint 20) were added to each well and the radioactivity was counted in a Perkin-Elmer Topcount NXT scintillation counter. IC50 determinations were calculated from competition curves using 6 drug concentrations, half-log apart, starting at a high concentration of 100 μM (final assay DMSO concentration=1%) using a four-parameter logistic equation. The results are given as IC50 value.

Compound	Human mCl [1]	Rat mCl [2]	Ki [3]	D2/D3 (Ki (D2L)/Ki (D3)) [4]	IC50 (hERG cardiac K+ channel)
COCCc1cc(N2CCN(CC[C@H]3CC[C@H](NC(C)=O)CC3)CC2)nc(C(C)(C)C)n1 [Compound 1, trans-N-[4-(2-{4-[2-tert-Butyl-6-(2-methoxy-ethyl)-pyrimidin-4-yl]-piperazin-1-yl}-ethyl)-cyclohexyl]-acetamide]	+ (+: 20-120 μl min^−1 mg^−1)	+ (+: 20-120 μl min^−1 mg^−1)	< 10 nM	+++ (+++>50)	> 10000 nM
COCc1cc(N2CCN(CC[C@H]3CC[C@H](NC(C)=O)CC3)CC2)nc(C(C)(C)C)n1 [Compound 2, trans-N-[4-(2-{4-[2-tert-butyl-6-(methoxymethyl)-pyrimidin-4-yl]-piperazin-1-yl}-ethyl)-cyclohexyl]-acetamide]	+ (+: 20-120 μl min^−1 mg^−1)	+ (+: 20-120 μl min^−1 mg^−1)	< 10 nM	+++ (+++>50)	> 10000 nM
COCCc1cc(N2CCN(CC[C@H]3CC[C@@H](NC(C)=O)CC3)[C@@H](C)C2)nc(C(C)(C)C)n1 [Compound 7, cis-N-[4-(2-{(2S)-4-[2-tert-Butyl-6-(2-methoxy-ethyl)-pyrimidin-4-yl]-2-methyl-piperazin-1-yl}-ethyl)-cyclohexyl]-acetamide]	+ (+: 20-120 μl min^−1 mg^−1)	+ (+: 20-120 μl min^−1 mg^−1)	< 10 nM	+++ (+++>50)	> 10000 nM
COCCc1cc(N2CCN(CC[C@H]3CC[C@H](NC(C)=O)CC3)[C@@H](C)C2)nc(C(C)(C)C)n1 [Compound 9, trans-N-[4-(2-{(2S)-4-[2-tert-Butyl-6-(2-methoxy-ethyl)-pyrimidin-4-yl]-2-methyl-piperazin-1-yl}-ethyl)-cyclohexyl]-acetamide]	+ (+: 20-120 μl min^−1 mg^−1)	+ (+: 20-120 μl min^−1 mg^−1)	< 10 nM	+++ (+++>50)	> 10000 nM
CC(C)(C)c1nc(CCO)cc(N2CCN(CC[C@H]3CC[C@H](NC=O)CC3)CC2)n1 [Compound 23, trans-N-[4-[2-[4-[2-tert-butyl-6-(2-hydroxyethyl)pyrimidin-4-yl]piperazin-1-yl]ethyl]cyclohexyl]formamide]	+ (+: 20-120 μl min^−1 mg^−1)	+ (+: 20-120 μl min^−1 mg^−1)	< 50 nM	+++ (+++>50)	–
CC(=O)N[C@H]1CC[C@H](CCN2CCN(c3cc(CCOC(F)F)nc(C(C)(C)C)n3)[C@@H](C)C2)CC1 [Compound 32, trans-N-[4-[2-[(3S)-4-[2-tert-butyl-6-[2-(difluoromethoxy)ethyl]pyrimidin-4-yl]-3-methyl-piperazin-1-yl]ethyl]cyclohexyl]acetamide]	+ (+: 20-120 μl min^−1 mg^−1)	∘ (∘: >120 μl min^−1 mg^−1)	< 10 nM	+++ (+++>50)	–
trans-N-[4-[2-[4-(2-tert-butyl-6-tetrahydrofuran-3-yl-pyrimidin-4-yl)piperazin-1-yl]ethyl]cyclohexyl]formamide [Compound 27]	+ (+: 20-120 μl min^−1 mg^−1)	+ (+: 20-120 μl min^−1 mg^−1)	< 10 nM	+++ (+++>50)	–

Further lines, with some results ahead:

Human mCl [1]	Rat mCl [2]	Ki [3]	D2/D3 (Ki (D2L)/Ki (D3)) [4]	Compound	IC50 (hERG cardiac K+ channel)
+ (+: 20-120 μl min^−1 mg^−1)	∘ (∘: >120 μl min^−1 mg^−1)	< 10 nM	+++ (+++>50)	COCCc1cc(N2CCN(CC[C@H]3CC[C@H](NC(C)=O)CC3)C[C@H]2C)nc(C(C)(C)C)n1 [Compound 6, trans-N-[4-(2-{(3R)-4-[2-tert-Butyl-6-(2-methoxy-ethyl)-pyrimidin-4-yl]-3-methyl-piperazin-1-yl}-ethyl)-cyclohexyl]-acetamide]	> 10000 nM
+ (+: 20-120 μl min^−1 mg^−1)	+ (+: 20-120 μl min^−1 mg^−1)	< 10 nM	+++ (+++>50)	COCCc1cc(N2CCN(CC[C@H]3CC[C@H](NC=O)CC3)CC2)nc(C(C)(C)C)n1 [Compound 11, trans-N-[4-(2-{4-[2-tert-Butyl-6-(2-methoxy-ethyl)-pyrimidin-4-yl]-piperazin-1-yl}-ethyl)-cyclohexyl]-formamide]	> 10000 nM
+ (+: 20-120 μl min^−1 mg^−1)	+ (+: 20-120 μl min^−1 mg^−1)	< 50 nM	+++ (+++>50)	COCCc1cc(N2CCN(CC[C@H]3CC[C@H](NC=O)CC3)[C@H](C)C2)nc(C(C)(C)C)n1 [Compound 24, trans-N-[4-[2-[(2R)-4-[2-tert-butyl-6-(2-methoxyethyl)pyrimidin-4-yl]-2-methyl-piperazin-1-yl]ethyl]cyclohexyl]formamide]	–
+ (+: 20-120 μl min^−1 mg^−1)	+ (+: 20-120 μl min^−1 mg^−1)	< 10 nM	+++ (+++>50)	CC(=O)N[C@H]1CC[C@H](CCN2CCN(c3cc(CCO)nc(C(C)(C)C)n3)[C@@H](C)C2)CC1 [Compound 25, trans-N-[4-[2-[(3S)-4-[2-tert-butyl-6-(2-hydroxyethyl)pyrimidin-4-yl]-3-methyl-piperazin-1-yl]ethyl]cyclohexyl]acetamide]	–
+ (+: 20-120 μl min^−1 mg^−1)	+ (+: 20-120 μl min^−1 mg^−1)	< 50 nM	+ (+>10)	COCCc1cc(N2CCN(CCC3CC(NC=O)C3)C[C@@H]2C)nc(C(C)(C)C)n1 (stereo partly drawn) [Compound 28, N-[3-[2-[(3S)-4-[2-tert-butyl-6-(2-methoxyethyl)pyrimidin-4-yl]-3-methyl-piperazin-1-yl]ethyl]cyclobutyl]formamide]	–
+ (+: 20-120 μl min^−1 mg^−1)	+ (+: 20-120 μl min^−1 mg^−1)	< 50 nM	+++ (+++>50)	CC(=O)N[C@H]1CC[C@H](CCN2CCN(c3cc(CCO)nc(C(C)(C)C)n3)[C@H](C)C2)CC1 [Compound 29, trans-N-[4-[2-[(3R)-4-[2-tert-butyl-6-(2-hydroxyethyl)pyrimidin-4-yl]-3-methyl-piperazin-1-yl]ethyl]cyclohexyl]acetamide]	–
+ (+: 20-120 μl min^−1 mg^−1)	+ (+: 20-120 μl min^−1 mg^−1)	< 50 nM	++ (++>20)	COCCc1cc(N2CCN(CC[C@H]3C[C@H](NC(C)=O)C3)C[C@@H]2C)nc(C(C)(C)C)n1 [Compound 30, trans-N-[3-[2-[(3S)-4-[2-tert-butyl-6-(2-methoxyethyl)pyrimidin-4-yl]-3-methyl-piperazin-1-yl]ethyl]cyclobutyl]acetamide]	–
+ (+: 20-120 μl min^−1 mg^−1)	+ (+: 20-120 μl min^−1 mg^−1)	< 10 nM	+ (+>10)	COCCc1cc(N2CCN(CC[C@H]3C[C@@H](NC(C)=O)C3)C[C@@H]2C)nc(C(C)(C)C)n1 [Compound 31, cis-N-[3-[2-[(3S)-4-[2-tert-butyl-6-(2-methoxyethyl)pyrimidin-4-yl]-3-methyl-piperazin-1-yl]ethyl]cyclobutyl]acetamide]	–
